Test results reported in DBAASP.
≈ marks a conversion by molar mass, not a printed value.

Key:
Assay in all cases: ≥ marks a high value that may be exact or a test limit, other limits are often not marked, values filed in µg/mL are converted to µM
[1] = tested on: Corynebacterium xerosis C875
Escherichia coli DC2 = tested on: Escherichia coli DC2
Escherichia coli UB1005 = tested on: Escherichia coli UB1005
[2] = tested on: Staphylococcus epidermidis C621
Shigella dysenteriae = tested on: Shigella dysenteriae
[3] = tested on: Candida albicans ATCC 2002
Escherichia coli = tested on: Escherichia coli
[4] = tested on: Staphylococcus aureus ATCC 2592
Staphylococcus aureus = tested on: Staphylococcus aureus
[5] = tested on: Escherichia coli ATCC 25922
Candida albicans = tested on: Candida albicans
Bacillus subtilis = tested on: Bacillus subtilis
[6] = tested on: Pseudomonas aeruginosa ATCC 27853
Pseudomonas aeruginosa = tested on: Pseudomonas aeruginosa
Enterococcus faecium = tested on: Enterococcus faecium
Klebsiella pneumoniae = tested on: Klebsiella pneumoniae
[7] = tested on: Staphylococcus aureus ATCC 43300
Acinetobacter baumannii = tested on: Acinetobacter baumannii
Streptococcus pneumoniae = tested on: Streptococcus pneumoniae
[8] = tested on: Bacillus subtilis ATCC 6633
Bacillus cereus = tested on: Bacillus cereus
[9] = tested on: Escherichia coli K12 MG1655

| Structure (SMILES) | MIC [1] [µM] | MIC (Escherichia coli DC2) [µM] | MIC (Escherichia coli UB1005) [µM] | MIC [2] [µM] | MIC [5] [µM] | also measured |
| --- | --- | --- | --- | --- | --- | --- |
| CC[C@H](C)[C@H](NC(=O)CNC(=O)[C@H](CO)NC(=O)[C@H](CC(C)C)NC(=O)[C@H](CC(C)C)NC(=O)CN)C(=O)N[C@@H](CC(C)C)C(=O)NCC(=O)N[C@@H](C)C(=O)NCC(=O)N[C@@H](CCCCN)C(=O)N[C@@H](Cc1cnc[nH]1)C(=O)N[C@H](C(=O)N[C@H](C(=O)N[C@H]1CSSC[C@@H](C(=O)O)NC(=O)[C@H](CC(C)C)NC(=O)CNC(=O)[C@H](CO)NC(=O)[C@H](CC(C)C)NC(=O)CNC1=O)C(C)C)[C@@H](C)CC [GLLSGILGAGKHIVCGLSGLC] | – | – | – | – | 2.54 (≈ 5 µg/mL) | MIC (Shigella dysenteriae): 1.27 µM (≈ 2.5 µg/mL); MIC [3]: 3.81 µM (≈ 7.49 µg/mL); MIC (Escherichia coli): > 50.8 µM; MIC [4]: 1.27 µM (≈ 2.5 µg/mL); MIC (Staphylococcus aureus): 38.1 µM (≈ 74.9 µg/mL); MIC (Candida albicans): 4.76 µM (≈ 9.36 µg/mL); MIC (Bacillus subtilis): 4.76 µM (≈ 9.36 µg/mL) |
| C[C@H](NC(=O)[C@H](C)NC(=O)[C@H](Cc1ccccc1)NC(=O)[C@H](C)NC(=O)[C@H](C)NC(=O)[C@H](Cc1c[nH]c2ccccc12)NC(=O)[C@H](C)NC(=O)[C@H](C)NC(=O)[C@H](Cc1ccccc1)NC(=O)[C@H](C)NC(=O)[C@H](C)NC(=O)[C@H](CCCN=C(N)N)NC(=O)[C@H](CCCN=C(N)N)NC(=O)[C@H](CCCN=C(N)N)NC(=O)[C@H](CCCN=C(N)N)NC(=O)[C@H](CCCN=C(N)N)NC(=O)[C@@H](N)CCCN=C(N)N)C(N)=O [RRRRRRAAFAAWAAFAA] | 0.5 (≈ 1 µg/mL) | 0.5 (≈ 1 µg/mL) | 1 (≈ 2 µg/mL) | 4 (≈ 8.01 µg/mL) | 4 (≈ 8.01 µg/mL) | MIC [6]: 8 µM (≈ 16 µg/mL) |
| CC(C)[C@H](NC(=O)[C@H](C)NC(=O)[C@H](C)NC(=O)[C@H](C)NC(=O)[C@H](CCCCN)NC(=O)[C@@H](N)CCCCN)C(=O)N[C@@H](C)C(=O)N[C@@H](C)C(=O)N[C@@H](C)C(=O)N[C@@H](C)C(=O)N[C@@H](C)C(=O)N[C@H](C(=O)N[C@@H](C)C(=O)N[C@@H](C)C(=O)N[C@@H](Cc1c[nH]c2ccccc12)C(=O)N[C@@H](C)C(=O)N[C@@H](C)C(=O)N[C@H](C(=O)N[C@@H](C)C(=O)N[C@@H](C)C(=O)N[C@@H](C)C(=O)N[C@@H](CCCCN)C(=O)N[C@@H](CCCCN)C(=O)N[C@@H](CCCCN)C(=O)N[C@@H](CCCCN)C(N)=O)C(C)C)C(C)C [KKAAAVAAAAAVAAWAAVAAAKKKK] | 0.5 (≈ 1.17 µg/mL) | ≥ 32 | ≥ 32 | ≥ 32 | – | – |
| CC[C@H](C)[C@H](NC(=O)CNC(=O)[C@H](Cc1cnc[nH]1)NC(=O)CNC(=O)CN)C(=O)N[C@@H](CCCN=C(N)N)C(=O)N[C@@H](CCCN=C(N)N)C(=O)N[C@H](C(=O)N[C@H](C(=O)N[C@@H](CCCN=C(N)N)C(=O)N[C@@H](CCCCN)C(=O)N[C@H](C(=O)N[C@H](C(=O)N[C@@H](Cc1cnc[nH]1)C(=O)N[C@H](C(=O)N[C@H](C(=O)N[C@@H](CCCCN)C(=O)N[C@@H](CCCCN)C(N)=O)[C@@H](C)CC)[C@@H](C)CC)[C@@H](C)CC)[C@@H](C)CC)[C@@H](C)CC)[C@@H](C)CC [GGHGIRRIIRKIIHIIKK] | – | – | – | – | > 16 | MIC (Pseudomonas aeruginosa): > 16 µM; MIC (Enterococcus faecium): 16 µM (≈ 33.7 µg/mL); MIC (Klebsiella pneumoniae): 16 µM (≈ 33.7 µg/mL); MIC [7]: 16 µM (≈ 33.7 µg/mL); MIC (Acinetobacter baumannii): 2.7 µM (≈ 5.69 µg/mL); MIC (Streptococcus pneumoniae): 16 µM (≈ 33.7 µg/mL) |
| CC[C@H](C)[C@H](NC(=O)CN)C(=O)N[C@@H](CC(C)C)C(=O)N[C@@H](CC(=O)O)C(=O)N1CCC[C@H]1C(=O)N[C@H](C(=O)N[C@@H](CCCCN)C(=O)N[C@@H](C)C(=O)N[C@@H](Cc1ccccc1)C(=O)N[C@@H](C)C(=O)N[C@@H](CCCCN)C(=O)N[C@@H](C)C(=O)N[C@@H](C)C(=O)NCC(N)=O)[C@@H](C)CC [GILDPIKAFAKAAG] | – | – | – | – | 16 (≈ 22 µg/mL) | MIC (Pseudomonas aeruginosa): 8.02 µM (≈ 11 µg/mL); MIC (Shigella dysenteriae): 4.01 µM (≈ 5.5 µg/mL); MIC [8]: 8.02 µM (≈ 11 µg/mL); MIC [3]: ≥ 32.1 µM; MIC [4]: 4.01 µM (≈ 5.5 µg/mL); MIC (Bacillus cereus): 16 µM (≈ 22 µg/mL) |
| CC[C@H](C)[C@H](NC(=O)[C@H](CC(=O)O)NC(=O)[C@H](Cc1c[nH]c2ccccc12)NC(=O)[C@H](CO)NC(=O)[C@H](CCCN=C(N)N)NC(=O)[C@@H](N)CCCCN)C(=O)N[C@H](C(=O)N[C@@H](CCCCN)C(=O)N[C@@H](CCCCN)C(=O)N[C@@H](Cc1ccc(O)cc1)C(=O)N[C@H](C(=O)NCC(=O)N[C@H](C(=O)N[C@H](C(=O)N[C@H](C(=O)NCC(=O)N[C@H](C(=O)N[C@H](C(=O)N[C@@H](Cc1cnc[nH]1)C(=O)O)[C@@H](C)CC)[C@@H](C)O)C(C)C)C(C)C)C(C)C)C(C)C)C(C)C [KRSWDIVKKYVGVVVGTIH] | – | – | – | – | – | MIC [9]: ≥ 58.6 µM |

Second part, led by results:

| MIC [1] [µM] | MIC (Escherichia coli DC2) [µM] | MIC (Escherichia coli UB1005) [µM] | MIC [2] [µM] | MIC [5] [µM] | Structure (SMILES) | also measured |
| --- | --- | --- | --- | --- | --- | --- |
| 2 (≈ 4.5 µg/mL) | ≥ 64 | ≥ 64 | ≥ 64 | – | C[C@H](NC(=O)[C@H](C)NC(=O)[C@H](C)NC(=O)[C@H](C)NC(=O)[C@H](C)NC(=O)[C@H](C)NC(=O)[C@H](C)NC(=O)[C@H](CCCCN)NC(=O)[C@@H](N)CCCCN)C(=O)N[C@@H](C)C(=O)N[C@@H](C)C(=O)N[C@@H](C)C(=O)N[C@@H](C)C(=O)N[C@@H](C)C(=O)N[C@@H](Cc1c[nH]c2ccccc12)C(=O)N[C@@H](C)C(=O)N[C@@H](C)C(=O)N[C@@H](C)C(=O)N[C@@H](C)C(=O)N[C@@H](C)C(=O)N[C@@H](C)C(=O)N[C@@H](CCCCN)C(=O)N[C@@H](CCCCN)C(=O)N[C@@H](CCCCN)C(=O)N[C@@H](CCCCN)C(N)=O [KKAAAAAAAAAAAAWAAAAAAKKKK] | – |
| ≥ 64 | ≥ 64 | ≥ 64 | ≥ 64 | – | C[C@H](NC(=O)[C@H](C)NC(=O)[C@H](C)NC(=O)[C@H](CO)NC(=O)[C@H](C)NC(=O)[C@H](C)NC(=O)[C@H](C)NC(=O)[C@H](CCCCN)NC(=O)[C@@H](N)CCCCN)C(=O)N[C@@H](C)C(=O)N[C@@H](C)C(=O)N[C@@H](CO)C(=O)N[C@@H](C)C(=O)N[C@@H](C)C(=O)N[C@@H](Cc1c[nH]c2ccccc12)C(=O)N[C@@H](C)C(=O)N[C@@H](C)C(=O)N[C@@H](CO)C(=O)N[C@@H](C)C(=O)N[C@@H](C)C(=O)N[C@@H](C)C(=O)N[C@@H](CCCCN)C(=O)N[C@@H](CCCCN)C(=O)N[C@@H](CCCCN)C(=O)N[C@@H](CCCCN)C(N)=O [KKAAASAAAAASAAWAASAAAKKKK] | – |
| 8 (≈ 20.1 µg/mL) | ≥ 32 | ≥ 64 | ≥ 64 | – | C[C@H](NC(=O)[C@H](C)NC(=O)[C@H](C)NC(=O)[C@H](CCCN=C(N)N)NC(=O)[C@H](C)NC(=O)[C@H](C)NC(=O)[C@H](C)NC(=O)[C@H](CCCCN)NC(=O)[C@@H](N)CCCCN)C(=O)N[C@@H](C)C(=O)N[C@@H](C)C(=O)N[C@@H](CCCN=C(N)N)C(=O)N[C@@H](C)C(=O)N[C@@H](C)C(=O)N[C@@H](Cc1c[nH]c2ccccc12)C(=O)N[C@@H](C)C(=O)N[C@@H](C)C(=O)N[C@@H](CCCN=C(N)N)C(=O)N[C@@H](C)C(=O)N[C@@H](C)C(=O)N[C@@H](C)C(=O)N[C@@H](CCCCN)C(=O)N[C@@H](CCCCN)C(=O)N[C@@H](CCCCN)C(=O)N[C@@H](CCCCN)C(N)=O [KKAAARAAAAARAAWAARAAAKKKK] | – |
